From PubChem BioAssay (NCI)
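Interpolation was linear, between the two tested concentrations surrounding the appropriate level; five concentrations were tested over 48 hours in 96-well plates. Abbreviation: GI50, concentration required for 50% inhibition of growth. TGI: concentration producing complete growth inhibition.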

Key:
Experiment in all cases: DTP human tumour cell line panel, 48 h
[1] = test system: BT-549 breast
[2] = test system: DU-145 prostate
[3] = test system: T-47D breast
[4] = test system: MDA-MB-435
[5] = test system: MCF7 breast

| Compound | GI50 [1] [µM] | TGI [1] [µM] | GI50 [2] [µM] | TGI [2] [µM] | GI50 [3] [µM] | TGI [3] [µM] | GI50 [4] [µM] | TGI [4] [µM] | GI50 [5] [µM] | TGI [5] [µM] |
| --- | --- | --- | --- | --- | --- | --- | --- | --- | --- | --- |
| CN1CCC(n2cnc(-c3ccc(F)cc3)c2-c2ccnc(NCCO)n2)CC1 | > 25 | > 25 | 22.3 | > 25 | > 25 | > 25 | 11.5 | > 25 | 3.78 | > 25 |
| Nc1ccccc1C#C/C=C\C#Cc1cccs1 | 12.2 | 28.7 | 10.2 | 31.6 | 17.4 | 48.2 | 2.81 | 12.2 | 2.34 | > 100 |
| COc1cccc(-n2ncc3c(N/N=C/c4ccc(C(=O)NCCN(C)C)cc4)ncnc32)c1 | 4.33 | 8.1 | 3.18 | 6.57 | > 22.6 | > 25 | 1.93 | 5.81 | 3.02 | 6.82 |
| COC(=O)[C@H](C[C@H](Cc1ccccc1)NC(=O)c1csc([C@@H](C[C@H](C(C)C)N(C)C(=O)[C@@H](NC(=O)[C@H]2CCCCN2C)C(C)C)OC(C)=O)n1)NC(=O)OCc1ccccc1 | < 0.0009 | 0.0689 | < 0.0009 | 1.31 | < 0.0009 | > 9 | < 0.0009 | < 0.0009 | < 0.0009 | > 9 |
| O=C1/C(=C\c2c[nH]c3ccccc23)c2ccccc2N1c1c(Cl)cccc1Cl | 1.6 | 4.07 | 1.74 | 3.28 | 2.01 | 5.62 | 1.77 | 3.57 | 1.74 | 3.76 |
| CC[C@@H](C(=O)O)C1CC[C@H](C)C([C@@H](C)[C@H](O)[C@H](C)C(=O)[C@H](CC)C2O[C@]3(C=C[C@@H](O)[C@]4(CC[C@@](C)(C5CC[C@](O)(CC)[C@H](C)O5)O4)O3)[C@H](C)C[C@@H]2C)O1 (stereo not given in full) | 0.184 | 3.19 | 0.805 | 32.4 | 0.371 | 16 | 1.04 | 2.77 | 0.11 | 13.9 |
| OC(c1cc(-c2ccccc2)nc2ccc(Cl)cc12)C1CCCCN1 (stereo not given) | 5.82 | 18.7 | 3.07 | 8.74 | 2.51 | 5.47 | 1.73 | 3.29 | 1.67 | 3.14 |
| COc1cc(C2CC(c3ccc4c(c3)OCO4)=NN2C=O)cc(OC)c1OC (stereo not given) | 5.21 | > 100 | 2.63 | > 26.1 | 3.34 | > 100 | 0.26 | 1.13 | 1.34 | > 100 |
| CC#C[C@]1(O)CC[C@H]2[C@@H]3CCC4=CC(=O)CCC4=C3[C@@H](c3ccc4c(c3)OCO4)C[C@@]21C | 22.3 | 122 | 138 | 391 | 45.6 | 577 | 106 | 390 | 77.2 | > 1000 |
| COc1ccc(/C=C(/C#N)C(N)=O)cc1OC | – | > 100 | – | > 100 | – | > 100 | – | > 100 | – | > 100 |
